# Experiments:
# [1] = biological target: reverse transcriptase enzyme (Human immunodeficiency virus type 1 group M subtype B, UniProt P04585); conditions: cited from earlier work
# proviral DNA synthesis = conditions: cited from earlier work
# [2] = biological target: T1, HIV NC protein in intact virus (Human immunodeficiency virus type 1 group M subtype B, UniProt P05888); assay: Cross-linking of NC protein in intact HIV (non-reducing gel-mobility shift, western blot); type: biochemical, HIV-1
# T1 construct: endogenous in cells; host or cells: intact HIV virions
# Excerpt: Purified concentrated retrovirus and antisera against the purified NC protein of the virus can be used to test the ability of a specific compound to penetrate the virus and react with the NC protein by forming disulfide complexes in the core of the virus. The compound is mixed with the whole retrovirus under reaction conditions appropriate for the compound. The virus is then removed from the reagent by centrifugation and disrupted in, e.g, standard SDS-PAGE sample buffer with (reduced) and without (non-reduced) 2-mercaptoethanol. The viral proteins are then separated by standard SDS-PAGE and the sample examined for the presence or absence of the monomeric NC protein in the non-reduced sample. Depending upon the virus used in the experiment and the conditions of electrophoresis, the NC protein can be visualized by protein staining methods, or by immuno-blot (e.g., western) methods. Compounds which react with the NC protein by attacking the zinc finger complexes and forming disulfide cross-linked products (i.e., which generate multimers in the mobility shift assay) inactivate the virus. Thus, compounds of interest (i.e., those which cause cross-linking) reduced the amount of monomeric NC protein detected.
# In order to determine whether HIV-1MN was inactivated by NOBA, the virus was incubated with varying concentrations of NOBA (3.0, 0.3, 0.03 and 0 mM) as in Table 1. The reaction products were pelleted by centrifugation, and separated by SDS-PAGE under reducing (2% 2-mercaptoethanol, panel A), or non-reducing conditions (panel B). p7NC was visualized by immunoblot analysis using monospecific rabbit antisera to the purified NC proteins as per L. E. Henderson et al., J. Virol. 66:1856 (1992).
# Disulfide reagents were further tested for their ability to disrupt NC structure in the virus, based on their ability to cause inter-NC cysteine disulfide bonds (i.e., cross-linking) in the intact virus. The formation of inter-NC cysteine disulfides creates NC multimers, which migrate through a non-reducing gel at a different rate than NC monomers, as described above. Intact HIV virus (generally 12.5 μM) was exposed to the specified reagent (generally 25 μM) for varying lengths of time and electrophoresed through a non-reducing SDS-polyacrylamide gel. HIV NC monomers and multimers were visualized by western blot analysis as described above in Example 3. The approximate time required to cross-link one-half of the NC proteins in the virus at the specified reaction conditions was then determined. […] The top number in the cells of the X-link column in Table 2 refers to the approximate time in minutes required for one-half of the HIV NC proteins to become cross-linked.
# HV-1 protease = HV-1 protease (Human immunodeficiency virus type 1 group M subtype B, UniProt P04585); conditions: cited from earlier work
# p7NC = biological target: T2, p7NC (Human immunodeficiency virus type 1 group M subtype B, UniProt P05888); assay: HPLC analysis of reaction products of purified p7NC with reagent; type: biochemical, HIV-1
# T2 construct: The NC protein of HIV-1 (MN) p7NC was expressed in E. coli; made in house; host or cells: E. coli (vector pMAL-c)
# Method in brief: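 Purified zinc-reconstituted p7NC (63 μM) incubated 10 min with reagent at 6:1 reagent:protein; products resolved by reversed-phase C-18 HPLC at pH 2 (0.05% TFA) with acetonitrile gradient. Rated fast (full conversion), slow (>10% native remaining) or very slow (>50% native remaining).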
smiles,measurement,setting,value
"NC(=O)c1cccc(N=O)c1 [NOBA, 3-nitrosobenzamide]",effect on the reverse transcriptase enzyme,[1],without direct impairment
same,proviral DNA synthesis,proviral DNA synthesis,blocked
same,"cross-linking of the HIV-1 NC protein in intact virus (gel-mobility shift), in words",[2],caused a cross-linking of the HIV-1 NC protein
same,amounts of detected p7NC under non-reducing conditions,"[2]; HIV-1MN, NOBA 3.0, 0.3, 0.03 mM, immunoblot",decreased with increasing NOBA concentration
same,enzymatic activity of HV-1 protease,HV-1 protease,did not influence
same,"reaction with purified p7NC (HPLC), in words",p7NC,oxidizes p7NC to products eluting as peaks A and B
